In patent US4738979A, “α2 -blocking derivatives of imidazole” (G. D. Searle & Co., priority 1985, dated 1988):

Columns and labels:
α2 -adrenergic receptors [1] = conditions: cited from earlier work
α1 -adrenergic receptors = assay: binding to α1-adrenergic receptors on rat brain homogenates (3H-WB 4101); conditions: 1.6 nM 3H-WB 4101
Description: (§1) The activity of the compounds according to the invention with respect to binding of the α-adrenergic receptors was determined in vitro according to a method deriving from the works of B. R. Rouot et al., Life Sci., 25, 769 (1979) and of D. U'Prichard et al., Mol. Pharmacol., 13, 454 (1977). This method consists in measuring the binding to the receptor on rat brain homogenates, by marking by means of a specific tritriated ligand placed in competition with the product to be tested.
(§2) In the presenct case the binding to the α1 -adrenergic receptors was measured by means of 1.6 nM of ^3 H-WB 4101 and the binding to the α2 -adrenergic receptors by means of 0.7 nM of ^3 H-p. aminoclonidine, the non-specific binding being determined by 1,000 nM of phentolamine. The results are given in Table II, column 3, and are expressed in terms of percentage of inhibition of the specific binding of 10^-7 molar compound concentration.
(§3) (2) The specific binding is the total binding less the nonspecific
(§4) binding. The total binding is the binding in the absence of nonradioactiv
(§5) drug. The nonspecific binding is the binding in the presence of 1,000 nM
(§6) of phentolamine. The products of the invention are tested at a
(§7) concentration of 10^-7 molar.

α2 -adrenergic receptors [2] = target: T1, α2 -adrenergic receptors (Rattus norvegicus, UniProt P22909); assay: binding to α2-adrenergic receptors on rat brain homogenates (3H-p. aminoclonidine); conditions: 10^-7 M; for inhibition at 0.1 µM: rat brain homogenates, 0.7 nM 3H-p. aminoclonidine, read-out: % Inhibition of the Specific Binding at 10^-7 M for α2 Recep.; for affinity for α2 receptors (in words): in vitro binding assay
T1 construct: from tissue; host or cells: rat brain homogenates
T1 sequence (P22909 1-465): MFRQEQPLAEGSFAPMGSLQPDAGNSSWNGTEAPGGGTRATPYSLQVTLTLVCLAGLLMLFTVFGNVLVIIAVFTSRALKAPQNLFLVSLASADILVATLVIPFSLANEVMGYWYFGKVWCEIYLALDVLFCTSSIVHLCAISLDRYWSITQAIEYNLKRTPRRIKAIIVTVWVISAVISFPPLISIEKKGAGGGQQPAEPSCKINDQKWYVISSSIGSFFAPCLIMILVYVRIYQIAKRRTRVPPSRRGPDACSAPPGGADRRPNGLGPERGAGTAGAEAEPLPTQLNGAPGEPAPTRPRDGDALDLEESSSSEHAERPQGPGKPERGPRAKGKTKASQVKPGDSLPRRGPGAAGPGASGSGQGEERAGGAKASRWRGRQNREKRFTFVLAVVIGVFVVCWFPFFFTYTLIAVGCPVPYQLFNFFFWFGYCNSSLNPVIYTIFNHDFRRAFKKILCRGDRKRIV
Description: as §1, §2, §3, §4, §5, §6, §7

[3] = acute toxicity after oral administration to mice (LD50); conditions: mouse, in vivo, 15 days mortality
Description: The acute toxicity of the compounds of the present invention was studied after oral administration to mice. The products to be tested, suspended in a 1% tragacanth gum mucilage, were administered by means of an intragastric probe to groups of three male mice which had fasted since the preceding day. The doses tested are a function of the effect observed and can vary from 3,000 to 3 mg/kg or less. The mortality was recorded for 15 days. The lethal dose for 50% of the animals (LD50) was calculated according to the method of J. Litchfield and F. Wilcoxon, J. Pharmacol. Exp. Ther., 96, 99 (1949) and expressed in mg/kg. The effect of the products on the behaviour of the animals is observed until 5 to 6 hours after the treatment indicated above and after 24 hours, using a method derived from that of S. Irwin, described by R. A. Turner, Screening Methods in Pharmacology, Chapter 3, pages 22-34, Academic Press, 1965. If anomalies are noted, the observation is prolonged and smaller doses are tested.

[4] = system: 3-mercaptopropionic acid (3-MPA)-induced tonic extension in mice; assay: protection against 3-mercaptopropionic acid (3-MPA)-induced tonic extension in mice; assay type: in vivo; conditions: 100 mg/kg orally, 30 minutes prior to 3-MPA (120 mg/kg s.c.)
Description: In the second study the anti-convulsant effect of the compounds of the present invention was examined in two seizure models; bicuculline-induced tonic extension in mice and 3-mercaptopropionic acid (3-MPA)-induced tonic extension in mice.
In the bicuculline study, the ability of the compounds of the present invention to protect against tonic extension (involving rigidity) was evaluated as follows. Each test compound was administered to a group of ten mice at a dose of 10 mg/kg, 3 hours prior to the i.v. administration of bicuculline (0.7 mg/kg). Anticonvulsant activity in this test is expressed as percentage of animals tested. The results are given in Table II, column 6, and indicate that several compounds display significant anticonvulsive activity in this test. The anticonvulsant effect of the compounds has also been tested with respect to the tonic extension induced by 3-mercaptopropionic acid (120 mg/kg subcutaneously) in mice.
In the 3-MPA assay, the compounds of the present invention are administered orally at a dose of 100 mg/kg 30 minutes prior to administration of 3-MPA. Each compound was tested on a group of 5 mice; if more than 1 mouse was protected, a second group of 5 mice was tested.

Compound | selectivity (in words) (α2 -adrenergic receptors [1]) | side-effects (in words) (α2 -adrenergic receptors [1]) | % Inhibition of the Specific Binding at 10^-7 M for α1 Recep. (α1 -adrenergic receptors) | inhibition at 0.1 µM (α2 -adrenergic receptors [2]) | affinity for α2 receptors (in words) (α2 -adrenergic receptors [2]) | LD50 at 360 h [3] | anticonvulsant effect versus 3-MPA (in words) [4]
COC(=O)[C@H]1[C@H]2C[C@H]3c4[nH]c5ccccc5c4CCN3C[C@H]2CC[C@@H]1O [rauwolscine] | lack selectivity | numerous side-effects |  |  |  |  | 
COC(=O)[C@@H]1[C@H]2C[C@H]3c4[nH]c5ccccc5c4CCN3C[C@@H]2CC[C@@H]1O [yohimbine] | lack selectivity | numerous side-effects |  |  |  |  | 
Fc1ccccc1C(Cc1c[nH]cn1)c1ccccc1 (centres unmarked) [Compound 28, 4(5)-{[2-(2-fluorophenyl)-2-phenyl]ethyl}imidazole] |  |  | 8% | 95% | high affinity | 94 mg/kg | potent anticonvulsant effect
Fc1cccc(F)c1C(Cc1c[nH]cn1)c1ccccc1 (centres unmarked) [Compound 27, 4(5)-{[2-(2-fluorophenyl)-2-(6'-fluorophenyl)]ethyl}imidazole] |  |  | 14% | 86% | high affinity | 173 mg/kg | potent anticonvulsant effect
